Assay results: patent publication US10780094B2, “Use of carbonic anhydrase inhibitors for treatment of neurological and psychiatric disorders” (New York University, priority 2016, dated 2020)

Legend:
mitochondrial CA = details: reference (16); cited from earlier work
[1] = references (44, 45); cited from earlier work
[2] = tested on: D3 cerebral microvascular endothelial cells; assay: TMRM assay of mitochondrial membrane potential (ΔΨ); assay type: cell-based, human; details: 40 μM FCCP
Procedure: (§1) Briefly, cells were plated on 25 mm optical borosilicate poly-L-lysine-coated sterile glass covers (ThermoFisher, Waltham, Mass., US) at a 70% confluence. The day after, cells were washed twice with HBSS and charged with 600 nM TMRM on HBSS. Cells were then incubated for 20 min in the incubator, at 37° C. and washed again with HBSS. After that, the medium was replaced by HBSS containing 150 nM of tetramethylrhodamine methyl ester (TMRM), in order to maintain the equilibrium distribution of the fluorophore. Cells were then mounted on Sykes-Moores chambers (BellCo, Vineland, N.J., US) and treated with the different drugs and/or peptides. An image was taken at minute 0 and at minute 45, after adding the drugs and/or peptides. In this experiment, the peptide was pre-aggregated as above before adding it to the cells.

SH-SY5Y neuronal cells = assay: as above; assay type: cell-based, human; details: 40 μM FCCP
Procedure: as §1

D3 cells [3] = assay: Mitochondrial and cytoplasmic calcium assay (Rhod-2 AM, Fluo-4 AM); assay type: cell-based, human; details: Ionomycin 5 μM at the end of the experiments
Procedure: (§2) This assay was performed as published in [60]. Briefly, cells were plated on 25 mm optical borosilicate poly-L-lysine-coated sterile glass covers, (ThermoFisher, Waltham, Mass., US) at a 70% confluence. 24 hours later, cells were loaded with 5 μM Rhod-2 AM or 2.5 μM Fluo-4 AM on HBSS for 45 minutes. Then, cells were washed twice with HBSS and incubated for another additional 15 minutes on fresh HBSS, without Rhod-2 AM or Fluo-4 AM. After that, HBSS was replaced again by fresh HBSS, glasses were mounted on microscopy chambers and experiments were conducted, after adding the pre-aggregated peptides and/or the drugs. Cells were mounted on Sykes-Moores chambers (BellCo, Vineland, N.J., US) and imaged every 15 seconds for 45 min, at a 20× magnification, using a Nikon fluorescent microscope (Chiyoda, Tokyo, Japan). Images were processed using NIS-Elements and ImageJ software. Due to the rapidity of this experiment, the peptide was pre-aggregated as described above to obtain oligomers before being added to the cells.

SH-SY5Y cells [4] = assay: as above; assay type: cell-based, human; details: Ionomycin 5 μM at the end of the experiments
Procedure: as §2

D3 cells [5] = assay: ATP measurement (CellTiter-Glo); assay type: cell-based, human
Procedure: (§3) Steady state levels of ATP were estimated using the Cell Titter-Glo, according to manufacturer's instructions. Briefly, 5×10^3 cells per well of both D3 and SHSY cells were plated on 96-wells plates. The day after, cells were treated with either 10 μM Q22 or 50 μM Ab42 peptides, respectively. Peptides were added alone or in combination with increasing concentrations of MTZ (100 and 300 μM) or AZT (30 and 300 μM). Controls were treated with either DMSO or 5 μM oligomycin. After 3 hours of treatment, the plates containing the cells were equilibrated to room temperature for 30 minutes prior to addition of the luciferin/luciferase/cell lysis mixture. Absolute luminescence from quadruplicate experiments was recorded using a SpectraMax plate reader (Molecular Devices, Sunnyvalem Calif., US).

SH-SY5Y cells [6] = assay: ATP measurement (CellTiter-Glo); assay type: cell-based, human; details: oligomycin 5 μM control; p<0.0001
Procedure: as §3

[7] = tested on: caspase 9 in SH-SY5Y neuronal cells; assay: Caspase-Glo 9 activity after Aβ challenge; assay type: cell-based, human; details: 10 μM Aβ42; 24 hours; no drug
Procedure: (§4) Caspase 9 and caspase 3/7 activation was measured by luminescent assays (Caspase-Glo 9 and caspase-Glo 3/7, Promega, Madison, Wis.), in cells treated with the Aβ peptides in DMEM without FBS. Briefly, 10,000 cells/well were plated in 96 wells plates and incubated for 24 hours with the freshly solubilized Aβ peptides. Caspase-Glo reagent was added to the cell cultures resulting in cell lysis, followed by caspase cleavage of the substrate and generation of a luminescent signal produced by the luciferase reaction. After 40 minutes incubation, the amount of caspase activity was evaluated in a plate-reading luminometer (Synergy HT Multi-Mode Microplate Reader, Biotek, Winooski, Vt.) as described in (Fossati et al., 2012b). To inhibit non-specific background activity, the proteasome inhibitor MG-132 was added to the Caspase-Glo reagent before the experiment as indicated by the manufacturer. In all cases results are expressed as fold-change compared to untreated control cells.
Cells were plated at a confluence of 10.000 cells per well in 96-wells microplate luminescence microtiter (ThermoFisher, Waltham, Mass., US). The day after, cells were treated with the peptides and/or drugs for the experimental times. After that, caspase-Glo 9 assay was performed, following the protocol provided from the manufacturer. Luminescence was measured using a FlexStation 3 Multi-Mode Microplate Reader (Molecular devices, Sunnyvalem Calif., US).

caspase 9 in glial cells = assay: Caspase-Glo 9 activity after Aβ challenge; assay type: cell-based, human; details: 10 μM Aβ42; 24 hours; no drug
Procedure: as §4

In the case of `CCOc1ccc2nc(S(N)(=O)=O)sc2c1` [ETZ, ethoxzolamide], the “activity on mitochondrial CA” value (mitochondrial CA) is given as “high activity” and the “ROS formation and cell death induced by high glucose” value [1] is given as “inhibit ROS formation and cell death”.

In the case of `N#CC(C#N)=NNc1ccc(OC(F)(F)F)cc1` [FCCP, p-trifluoromethoxyphenylhydrazone], the “mitochondrial depolarization after treatment with drugs and peptides” value [2] was “further depolarized” and the “mitochondrial depolarization after treatment with drugs and peptides” value (SH-SY5Y neuronal cells) was “further depolarized”.

For `C[C@H](CCC(=O)O)C[C@H](C)C[C@H](C)C(=O)/C=C(\O)[C@H](C)C[C@H](C)C/C=C/[C@@H](C)[C@@H](O)[C@@H](C)[C@@H](O)C[C@@H]1CC[C@@](C)([C@H]2CC[C@@](C)([C@@H](C)O)O2)O1` [Ionomycin], the “mitochondrial and cytoplasmic calcium levels” value (D3 cells [3]) was “increase in mitochondrial and cytoplasmic calcium levels” and the “mitochondrial and cytoplasmic calcium levels” value (SH-SY5Y cells [4]) was “increase in mitochondrial and cytoplasmic calcium levels”.

With `CC[C@H]1/C=C/C=C/C[C@@H](C)[C@H](O)[C@@](C)(O)C(=O)[C@@H](C)[C@H](O)[C@@H](C)C(=O)[C@@H](C)[C@H](O)[C@@H](C)/C=C/C(=O)O[C@@H]2[C@H](C)[C@H](CC1)O[C@]1(CC[C@H](C)[C@H](C[C@@H](C)O)O1)[C@H]2C` [oligomycin] the “increase in ATP luminescence” value (D3 cells [5]; oligomycin 5 μM, p=0.0002) was 32.4% and the “decrease in ATP levels” value (SH-SY5Y cells [6]) was 34%.

In the case of “Aβ40-Q22: Synthetic Aβ40, the Dutch genetic variant, containing the E22Q substitution”, the “increase in steady state ATP levels” value (D3 cells [5]; peptide alone, p=0.001) was 21.6%.

In the case of “Aβ42: Synthetic homologue of the amyloid subunit Aβ42, used to challenge cells”, the “caspase 9 activation increase compared to control cells” value [7] was “about 1.5 times” and the “caspase 9 activation increase compared to control cells” value (caspase 9 in glial cells) was “about 1.5 times”.
